“Also recorded” adds a separate entry of the source. Like-named read-outs stand apart in the source and are kept apart here.
Assays:
Shc = experiment: Tyrosine phosphorylation of Shc in stimulated PC12 cells (anti-Shc immunoprecipitation, anti-phosphotyrosine immunoblot); assay type: cell-based, rat; settings: for effect on carbachol induced tyrosine phosphorylation of Shc: antagonist
Description: Tyrosine phosphorylation of Shc in response to bradykinin, carbachol, PMA and other stimuli was also measured. Quiescent PC12 cells were stimulated for 5 min at 37° C. with bradykinin (1AM), carbachol (1 mM), KC1 (75 mM), PMA (1.6pM), NGF (100 ng/ml), or left unstimulated (−). The cells were also stimulated with carbachol (1 mM) or potassium chloride (75 mM) in the presence of 3 mM EGTA. Stimulations with DMPP (100 μM) or muscarine (1 mM) were preformed under the same conditions. […] The Shc proteins were immunoprecipitated with anti-Shc antibodies, the immunoprecipitates were resolved by SDS-PAGE (8%1, transferred to nitrocellulose and immunoblotted with anti-phosphotyrosine antibodies.

PYK2 [1] = experiment: Tyrosine phosphorylation of PYK2 in stimulated PC12 cells (anti-PYK2 immunoprecipitation, anti-phosphotyrosine immunoblot); assay type: cell-based, rat
Kv1.2 potassium channel = experiment: Tyrosine phosphorylation of Kv1.2 potassium channel in 293 cells coexpressing PYK2; assay type: cell-based, human; settings: 293 cells coexpressing Kv1.2-HA and PYK2; PMA 1.6 μM, calcium ionophore 6 μM
PYK2 [2] = experiment: Tyrosine phosphorylation of PYK2 in transiently transfected 293 cells; assay type: cell-based, human; settings: PMA 1.6 μM, calcium ionophore 6 μM
Description: We examined the possibility whether PYK2 can tyrosine phosphorylate the Kv1.2 channel and regulate its function. In order to test this possibility, we expressed in 293 cells the Kv1.2 protein, Kv1.2 together with PYK2, and as a control Kv1.2 with a kinase negative PYK2 mutant (PKN) or with the protein tyrosine kinase Fak. The cells were grown for 24 hours in medium containing 0.2% serum and then stimulated with PMA (1.6 μM), calcium ionophore (6 μM), or left unstimulated.
Embryonic human kidney 293 cells were transiently transfected with different combinations of mammalian expression vectors which direct the synthesis of Kv1.2-HA, PYK2, a kinase negative PYK2 (PKN) or the protein tyrosine kinase Fak. The cells were grown for 24 h in the presence of 0.2% serum and then either stimulated with PMA (1.6 μM, 10 min at 37° C.), the calcium ionophore A23187 (6 μM, 10 min at 37° C.) or left unstimulated (−).
Tyrosine phosphorylation of each protein was analysed following immunoprecipitation and immunoblotting with anti-phosphotyrosine antibodies. The expression of each protein was determined by immunoblot analysis of total cell lysates from each transfection with anti-PYK2, anti-HA or anti-Fak antibodies.

PYK-2 = experiment: Tyrosine phosphorylation of PYK-2 in NIH3T3 cell lines that overexpress PYK-2; assay type: cell-based, mouse; settings: NIH3T3 cells overexpressing PYK-2 / PYK-2-HA; TPA 6 μM, 15 min at 37° C.
Description: Stable cell lines of NIH3T3 that overexpress PYK2 were established by contransfection of PYK2 subcloned into pLSV together with pSV2neo utilizing lipofectamine reagent (GIBCO BRL). Following transfection the cells were grown in Dulbecco's modified Eagle's medium containing 10% fetal bovine serum and 1 mg/ml G418. Transient transfections into 293 cells were performed by using the calcium phosphate technique (*).
The PYK-2 cDNA cloned in PLSV was cotransfected with pSV2neo into PC12 cells and NIH3T3 in order to establish stable cell lines. G418 resistant colonies were screened by immunoprecipitating and immunoblotting.
NIH3T3 cell lines were established that overexpress the PYK-2 and the PYK-2-HA protein. […] The level of phosphorylation is not so high.

Kv1.2 channel [3] = settings: after 20 min incubation; as previously shown (Huang et al.); cited from earlier work
Kv1.2 channel [4] = experiment: Kv1.2 currents in microinjected Xenopus oocytes, two microelectrode voltage-clamp; assay type: cell-based, Xenopus laevis; settings: for inhibition of outward current: 8 min after addition of 100 nM PMA
Description: In vitro capped RNA transcripts of Kv1.2, PYK2 and PKN were synthesized from linearized plasmids DNA templates utilizing the mMESSAGE MMACHINE kit (Ambion), following the supplier's protocols. The products of the transcription reaction (cRNAs) were diluted in RNAse-free water and stored at −70° C. Expression of the RNAs was done by injection of 50nl of RNA into defolliculated stage V and VI oocytes from Xenopus laevis (Iverson et al., J. Neurosc. 10, 2903-2916, 1990). The injected oocytes were incubated for 2-3 days at 20° C. in L15 solution (1:2 dilution of Gibco's Leibovitz L15 medum in H20, with 50U/ml nystatin, 0.1 mg/ml gentamycin, 30 mM HEPES buffer, pH 7.3-7.4, filtered through a […] membrane). Electrophysiological Recording and analysis. Ionic currents were recorded with a two microelectrode voltage-clamp as described (Iverson et al., suDra). The current were low-pass filtered KHz using an 8-pole Bessel filter and stored in a 80286 microcomputer using the pclamp acquisition system (Axon Instruments). The data was analyzed with the clamp fit pro-rams of the pCIamp system (Axon Instruments). All recording were performed at room temperature ([…]). The recording chamber was continually perfused with recording solution. To avoid contamination of the oocyte by Ca+^2-activated Cl^− currents low Cl^− recording solution was used (96 mM Na+, glutamate, 2 mM K^+ glutamate, 0.5 mM CaCl2, 5 mM MgCl2, 5 mM HEPES buffer). The K^+ currents were elicited in depolarizinc, steps from −100 to +40 mv in 10 mV increments every 15 seconds.
Kv1.2 currents from oocytes microinjected with either Kv1.2 mRNA, Kv1.2 and PYK2 mRNAs, or Kv1.2 and a kinase negative mutant of PYK2 mRNAs (PKN). Currents were elicited in response to depolarizing steps from −100 to +30 mV increments from a holding potential of −110 mV. Representative traces of Kv1.2 channels before and after bath application of 100 nM PMA at the annotated time (8 and 20 minutes) in the same cell.
Suppression of Kv1.2 currents in response to PMA is blocked by a kinase negative PYK2 mutant (PKN). […]

[5] = PC12 cells, agent alone, 37° C., b373: TPA 15 min, bradykinin 1 μM 1 min, A23187 2 μM 15 min, KCl 75 mM

CN1[C@@H]2CC[C@H]1C[C@@H](OC(=O)C(CO)c1ccccc1)C2 (stereo partly drawn) [atropine]
effect on carbachol induced tyrosine phosphorylation of Shc (Shc): had no effect

CNC1(C)C2CCC(C2)C1(C)C (stereo not drawn) [mecamylamine]
effect on carbachol induced tyrosine phosphorylation of Shc (Shc): blocked the effect of carbachol

Pertusis toxin: toxin known to positively regulate G-coupled receptor signalling
tyrosine phosphorylation of PYK2 in response to the agent (PYK2 [1]; [5]): didn't cause any response alone
effect on the PYK-2 tyrosine phosphorylation response to TPA / bradykinin (PYK2 [1]; PC12 cells, agent in combination with TPA or bradykinin): induced the response of TPA and bradykinin

C[N+](C)(C)CCOC(N)=O [carbachol]
time after applying the agent at which PYK2 became phosphorylated on tyrosine residues (PYK2 [1]; PC12 cells): 5 s
tyrosine phosphorylation of PYK2 in response to the agent (PYK2 [1]; [5]): induces strong, tyrosine phosphorylation of PYK2
time of maximum tyrosine phosphorylation of Shc (Shc; transient, followed by a rapid decline): one

CNc1ccc2oc(C[C@H]3O[C@@]4(CC[C@H]3C)O[C@H]([C@H](C)C(=O)c3ccc[nH]3)[C@H](C)C[C@H]4C)nc2c1C(=O)O [calcium ionophore A23187]
tyrosine phosphorylation of PYK2 in response to the agent (PYK2 [1]; [5]): undergoes tyrosine phosphorylation; also recorded: PYK2 is phosphorylated on tyrosine residues
tyrosine phosphorylation of Kv1.2 (Kv1.2 potassium channel): enhanced
tyrosine phosphorylation of PYK2 in response to the agent (PYK2 [2]): induced a weaker response

C[C@@H]1O[C@H](C[N+](C)(C)C)C[C@H]1O [muscarine]
tyrosine phosphorylation of Shc in response to the agent (Shc): had no effect

PDGF
tyrosine phosphorylation of PYK-2 in response to the agent (PYK-2): undergoes tyrosine phosphorylation

O=C(O)CN(CCOCCOCCN(CC(=O)O)CC(=O)O)CC(=O)O [EGTA, ethyleneglycol-bis (P-aminoethyl ether)-N,N,N′N′-teraacetic acid]
effect on agonist (carbachol) induced tyrosine phosphorylation of PYK2 (PYK2 [1]; PC12 cells, elimination of extracellular calcium, EGTA 3 mM): completely blocked agonist induced tyrosine phosphorylation of PYK2

aFGF: growth factor stimulus
tyrosine phosphorylation of PYK-2 in response to the agent (PYK-2): undergoes tyrosine phosphorylation

CCCCCCCCCCCCCC(=O)O[C@@H]1[C@@H](C)[C@@]2(O)[C@@H](C=C(CO)C[C@]3(O)C(=O)C(C)=C[C@@H]23)[C@@H]2C(C)(C)[C@]12OC(C)=O [PMA, phorbol 12-myristate 13-acetate]
effect of prolonged PMA treatment (down-regulation of PKC) on the agent-stimulated tyrosine phosphorylation of PYK2 (PYK2 [1]; PC12 cells pretreated with 100 nM PMA for 12 h): completely abolished the effect of PMA
tyrosine phosphorylation of PYK2 in response to the agent (PYK2 [1]; [5]): induced tyrosine phosphorylation of PYK2
tyrosine phosphorylation of PYK2 in response to the agent (PYK2 [1]; PC12 cells, agent alone, 37° C., b373: TPA 15 min, bradykinin 1 μM 1 min, A23187 2 μM 15 min, KCl 75 mM, listed as TPA): undergoes tyrosine phosphorylation
tyrosine phosphorylation of Kv1.2 (Kv1.2 potassium channel): enhanced
tyrosine phosphorylation of PYK2 in response to the agent (PYK2 [2]): induced tyrosine phosphorylation
inhibition of Kv1.2 currents (Kv1.2 channel [3]): 80-90%
inhibition of outward current (Kv1.2 channel [4]; oocytes coexpressing Kv1.2 and PYK2): 95%
inhibition of outward current (Kv1.2 channel [4]; oocytes expressing Kv1.2 alone): 25%
effect on Kv1.2 currents (Kv1.2 channel [4]; oocytes expressing Kv1.2): caused inhibition of Kv1.2 currents

[Cl-].[K+] [KCl, potassium chloride]
tyrosine phosphorylation of PYK2 in response to the agent (PYK2 [1]; [5]): induces rapid tyrosine phosphorylation of PYK2

Cholera toxin
effect on the PYK-2 tyrosine phosphorylation response to TPA / bradykinin (PYK2 [1]): gave higher signal in combination with TPA and bradykinin
tyrosine phosphorylation of PYK2 in response to the agent (PYK2 [1]): didn't cause phosphorylation of PYK-2 alone

C[N+]1(C)CCN(c2ccccc2)CC1.[I-] [DMPP, 1,1-dimethyl-4-phenyl piperazinium iodide]
tyrosine phosphorylation of Shc in response to the agent (Shc): induced phosphorylation of Shc
